Measurements from patent EP1534672B1, “RETINOL DERIVATIVES, THEIR USE IN THE TREATMENT OF CANCER AND FOR POTENTIATING THE EFFICACY OF OTHER CYTOTOXIC AGENTS” (priority 2002, dated 2004).
pIC50: −log10 of the molar value. Like-named read-outs stand apart in the source and are kept apart here. Marks after values point to notes of the source that are not given here.

What was measured:
[1] = system: Human Breast Adenocarcinoma Cell Line MDA-MB-231; test: Drug cytotoxicity testing (viable cell count, trypan blue exclusion, cell growth inhibition); format: cell-based; details: for cell growth inhibition reached on increase of the concentration, in (B): sodium salt, range 10^-9 to 10^-7 M, dilution in normal saline (B)
Description: (§1) MDA-MB-231 cells were propagated in MEM culture medium with 2 mM L-glutamine, 10% heat-inactivated fetal bovine serum (FBS) and antibiotics. DU 145 cells were cultured in MEM culture medium containing 2 mM L-glutamine, 1 mM sodium pyruvate, 10% FBS and antibiotics. SKOV-3 cells were cultured in McCoy's 5A culture medium, supplemented with 1,5 mM L-glutamine, 10% FBS and antibiotics. A549 cells were cultured in Ham's F-12 culture medium with 1 mM L-glutamine, 10% FBS and antibiotics. All media and supplements were purchased from Sigma-Aldrich (St.Louis, MO, USA). Cell propagation of all lines was carried out in Falcon™ 25 cm^2 cultivation flasks (Becton Dickinson Labware).
(§2) Drug cytotoxicity testing was carried out with using Falcon™ 96-well cultivation plates for adherent cells (Becton Dickinson Labware). These plates were seeded by cells either at 12 × 10^3 MDA-MB-231 cells/well, or at 12 × 10^3 DU 145 cells/well, or at 14 × 10^3 SKOV-3 cells/well, or at 10 × 10^3 A549 cells/well in a volume of 200 µL/well.
(§3) The cell cultures in cultivation plates were allowed to adhere for 24 hour of incubation. On day 1 after cell seeding, 2 µL solutions of the drugs to be tested in medium with 5% FBS was added to the cultures. In the control cultures, 2 µL of medium with 5% FBS was added as solvent control. The cells were incubated for 2 consecutive days. At the end of the incubation period adherent cells were detached by trypsinization and the number of viable cells was counted using trypan blue exclusion test and a hemocytometer. All data were derived from an average of three determinations each in six replicates. The results were expressed as mean cell number ± SE and the differences between control and test series evaluated by means of Student's t-test. The drug cytotoxicity was evaluated based on the extent of cell growth inhibition. The cell growth inhibition of the tested drugs was calculated as follows: Cell growth inhibition,% = (Control-TestSeries)/(Control) × 100 [formula]
In the case of comparative evaluation of cytotoxicity of the inventive compounds themselves and the formulation related to consecutive dilutions of their initial solutions before adding to the cultures, 2 µL solutions of the drugs to be tested in medium with 5% FBS, in normal saline and in saline with 2,3 mM CaCl2 were added to the cultures. In control cultures, 2 µL of medium with 5% FBS, normal saline and saline with 2,3 mM CaCl2 were added as solvent controls (negative controls). […] Therefore an average of negative controls was calculated. […] Therefore an average of positive controls was calculated (for each antibiotic).

[2] = system: Human Prostate Carcinoma Cell Line DU 145; test: as above; format: cell-based; details: alone or in formulation at molar ratio 1:6
Description: as §1, §2, §3

[3] = rat, in vivo, ip
Description: A single dose i.p. toxicity study in rats was carried out. […] The minimal lethal dose is thus above 100 mg/kg body weight for these compounds.

[4] = cytotoxic drug 10^-8 mol/L, working solutions in medium with 5% FBS
[5] = Homo sapiens, MDA-MB-231, compound alone 10^-7 mol/L, in A (saline with […] CaCl2), read-out: cell growth inhibition
[6] = Homo sapiens, MDA-MB-231, compound alone 10^-7 mol/L, in B (normal saline), read-out: cell growth inhibition
[7] = Homo sapiens, MDA-MB-231, compound alone 10^-7 mol/L, read-out: Cell growth inhibition in A compared to that in B was increased by
[8] = Homo sapiens, MDA-MB-231, compound alone 10^-8 mol/L, in A (saline with […] CaCl2), read-out: cell growth inhibition
[9] = Homo sapiens, MDA-MB-231, compound alone 10^-8 mol/L, in B (normal saline), read-out: cell growth inhibition
[10] = Homo sapiens, MDA-MB-231, compound alone 10^-8 mol/L, read-out: Cell growth inhibition in A compared to that in B was increased by
[11] = Homo sapiens, MDA-MB-231, compound alone 10^-9 mol/L, in A (saline with […] CaCl2), read-out: cell growth inhibition
[12] = Homo sapiens, MDA-MB-231, compound alone 10^-9 mol/L, in B (normal saline), read-out: cell growth inhibition
[13] = Homo sapiens, MDA-MB-231, compound alone 10^-9 mol/L, read-out: Cell growth inhibition in A compared to that in B was increased by
[14] = compound alone 10^-7 mol/L, in B (normal saline)
[15] = compound alone 10^-8 mol/L, in B (normal saline)
[16] = compound alone 10^-9 mol/L, in B (normal saline)
[17] = Homo sapiens, MDA-MB-231, 48 h, compound alone, final concentration 10^-7 mol/L, working solutions in MEM with 5% FBS, two days, read-out: cell growth inhibition
[18] = Homo sapiens, MDA-MB-231, 48 h, compound alone, final concentration 10^-8 mol/L, working solutions in MEM with 5% FBS, two days, read-out: cell growth inhibition
[19] = Homo sapiens, MDA-MB-231, 48 h, compound alone, final concentration 10^-9 mol/L, working solutions in MEM with 5% FBS, two days, read-out: cell growth inhibition
[20] = compound alone, final concentration 10^-7 mol/L, working solutions in MEM with 5% FBS, two days
[21] = compound alone, final concentration 10^-8 mol/L, working solutions in MEM with 5% FBS, two days
[22] = compound alone, final concentration 10^-9 mol/L, working solutions in MEM with 5% FBS, two days

O=C1c2c(O)ccc(O)c2C(=O)c2c(NCCNCCO)ccc(NCCNCCO)c21 [Mitoxantrone, mitoxantrone]
pIC50 ([1]; Homo sapiens, MDA-MB-231, as concentration of cytotoxic drug, alone or in formulation at molar ratio 1:6, medium with 5% FBS, calculated from three concentrations, read-out: IC50 mol/L (a)): 8.30
inhibition at 0.1 µM ([1]; Homo sapiens, MDA-MB-231, cytotoxic drug 10^-7 mol/L (100 nM), alone or in formulation at molar ratio 1:6, working solutions in medium with 5% FBS, read-out: Cell Growth Inhibition, %): 58.8%
inhibition at 0.01 µM ([1]; Homo sapiens, MDA-MB-231, cytotoxic drug 10^-8 mol/L, alone or in formulation at molar ratio 1:6, working solutions in medium with 5% FBS, read-out: Cell Growth Inhibition, %): 52.6%
inhibition at 0.001 µM ([1]; Homo sapiens, MDA-MB-231, cytotoxic drug 10^-9 mol/L, alone or in formulation at molar ratio 1:6, working solutions in medium with 5% FBS, read-out: Cell Growth Inhibition, %): 43.6%
Tumor Cell Number, × 10^3 ([1]; cytotoxic drug 10^-7 mol/L (100 nM), alone or in formulation at molar ratio 1:6, working solutions in medium with 5% FBS): 22.5 ± 1.63 × 10^3
Cell Growth Inhibition, % ([1]; cytotoxic drug 10^-7 mol/L (100 nM), alone or in formulation at molar ratio 1:6, working solutions in medium with 5% FBS, 0.1 µM): 61.1* %
Tumor Cell Number, × 10^3 ([1]; cytotoxic drug 10^-7 mol/L (100 nM), alone or in formulation at molar ratio 1:6, working solutions in medium with 5% FBS, listed as mitoxantrone): 22.9 ± 1.49 × 10^3
Tumor Cell Number, × 10^3 ([1]; cytotoxic drug 10^-8 mol/L, alone or in formulation at molar ratio 1:6, working solutions in medium with 5% FBS): 27.4 ± 1.90 × 10^3
Tumor Cell Number, × 10^3 ([1]; cytotoxic drug 10^-9 mol/L, alone or in formulation at molar ratio 1:6, working solutions in medium with 5% FBS): 32.6 ± 1.99 × 10^3
inhibition at 0.1 µM ([2]; Homo sapiens, DU-145, cytotoxic drug 10^-7 mol/L (100 nM), working solutions in medium with 5% FBS): 60.2%
inhibition at 0.01 µM ([2]; Homo sapiens, DU-145, cytotoxic drug 10^-8 mol/L, working solutions in medium with 5% FBS): 39.1%
inhibition at 0.001 µM ([2]; Homo sapiens, DU-145, cytotoxic drug 10^-9 mol/L, working solutions in medium with 5% FBS): 19.1%
pIC50 ([2]; Homo sapiens, DU-145, as concentration of cytotoxic drug, medium with 5% FBS, calculated from three concentrations, read-out: IC50 mol/L (a)): 7.49
Tumor Cell Number, × 10^3 ([2]; cytotoxic drug 10^-7 mol/L (100 nM), working solutions in medium with 5% FBS): 23.1 ± 1.34 × 10^3
Cell Growth Inhibition, % ([2]; cytotoxic drug 10^-7 mol/L (100 nM), working solutions in medium with 5% FBS, 0.1 µM): 59.8* %
Tumor Cell Number, × 10^3 ([2]; cytotoxic drug 10^-7 mol/L (100 nM), working solutions in medium with 5% FBS, listed as mitoxantrone): 19.2 ± 1.16 × 10^3
Cell Growth Inhibition, % [2, 4]: 39.1 * %
Tumor Cell Number, × 10^3 [2, 4]: 35.0 ± 1.70 × 10^3
Tumor Cell Number, × 10^3 ([2]; cytotoxic drug 10^-9 mol/L, working solutions in medium with 5% FBS): 46.5 ± 2.32 × 10^3

CC1=C(/C=C/C(C)=C/C=C/C(C)=C/C(=O)N[C@@H](CS(=O)(=O)O)C(=O)O)C(C)(C)CCC1 [compound I-1, N-(all-trans-Retinoyl)-L-cysteic acid]
inhibition at 0.1 µM [1, 5]: 41.5%
inhibition at 0.1 µM [1, 6]: 31.3%
inhibition at 0.1 µM [1, 7]: 14.8%
inhibition at 0.01 µM [1, 8]: 40.2%
inhibition at 0.01 µM [1, 9]: 29.7%
inhibition at 0.01 µM [1, 10]: 15%
inhibition at 0.001 µM [1, 11]: 36.9%
inhibition at 0.001 µM [1, 12]: 24.8%
inhibition at 0.001 µM [1, 13]: 16.1%
number of viable cells [1, 14]: 39.1 ± 1.41 × 10^3
number of viable cells [1, 15]: 40.0 ± 1.35 × 10^3
number of viable cells [1, 16]: 42.8 ± 1.56 × 10^3
cell growth inhibition reached on increase of the concentration, in (B) [1]: ~31%
minimal lethal dose [3]: above 100 mg/kg body weight

CC1=C(/C=C/C(C)=C/C=C/C(C)=C\C(=O)N[C@@H](CS(=O)(=O)O)C(=O)O)C(C)(C)CCC1 [compound II-1, N-(13-cis-Retinoyl)-L-cysteic acid]
inhibition at 0.1 µM [1, 5]: 42.7%
inhibition at 0.1 µM [1, 6]: 32.2%
inhibition at 0.1 µM [1, 7]: 15.5%
inhibition at 0.01 µM [1, 8]: 41.3%
inhibition at 0.01 µM [1, 9]: 30.6%
inhibition at 0.01 µM [1, 10]: 15.4%
inhibition at 0.001 µM [1, 11]: 37.4%
inhibition at 0.001 µM [1, 12]: 25.5%
inhibition at 0.001 µM [1, 13]: 16%
number of viable cells [1, 14]: 38.6 ± 1.25 × 10^3
number of viable cells [1, 15]: 39.5 ± 1.46 × 10^3
number of viable cells [1, 16]: 42.4 ± 1.63 × 10^3
cell growth inhibition reached on increase of the concentration, in (B) [1]: ~32%

CCOC(=O)[C@H](CS(=O)(=O)O)NC(=O)\C=C(C)/C=C/C=C(C)/C=C/C1=C(C)CCCC1(C)C [compound II-1b, N-(13-cis-retinoyl)-L-cysteic acid ethyl ester]
inhibition at 0.1 µM [1, 17]: 49.1%
inhibition at 0.01 µM [1, 18]: 46.3%
inhibition at 0.001 µM [1, 19]: 41.4%
number of viable cells [1, 20]: 29.8 ± 1.70 × 10^3
number of viable cells [1, 21]: 31.4 ± 1.94 × 10^3
number of viable cells [1, 22]: 34.3 ± 1.88 × 10^3

CC1=C(/C=C/C(C)=C/C=C/C(C)=C\C(=O)N[C@@H](CS(=O)(=O)O)C(=O)OC(C)C)C(C)(C)CCC1 [compound II-1c, N-(13-cis-retinoyl)-L-cysteic acid isopropyl ester]
inhibition at 0.1 µM [1, 17]: 50.4%
inhibition at 0.01 µM [1, 18]: 47%
inhibition at 0.001 µM [1, 19]: 42.6%
number of viable cells [1, 22]: 33.6 ± 2.75 × 10^3

CCCOC(=O)[C@H](CS(=O)(=O)O)NC(=O)\C=C(C)/C=C/C=C(C)/C=C/C1=C(C)CCCC1(C)C [compound II-1d, N-(13-cis-retinoyl)-L-cysteic acid propyl ester]
inhibition at 0.1 µM [1, 17]: 53.7%
inhibition at 0.01 µM [1, 18]: 50.4%
inhibition at 0.001 µM [1, 19]: 44.9%
number of viable cells [1, 20]: 26.3 ± 1.86 × 10^3
number of viable cells [1, 21]: 28.2 ± 1.29 × 10^3
number of viable cells [1, 22]: 31.3 ± 2.68 × 10^3

CCCCOC(=O)[C@H](CS(=O)(=O)O)NC(=O)\C=C(C)/C=C/C=C(C)/C=C/C1=C(C)CCCC1(C)C [compound II-1e, N-(13-cis-retinoyl)-L-cysteic acid butyl ester]
inhibition at 0.01 µM [1, 18]: 50.7%
inhibition at 0.001 µM [1, 19]: 45.6%
number of viable cells [1, 22]: 30.9 ± 1.82 × 10^3

CC1=C(/C=C/C(C)=C/C=C/C(C)=C\C(=O)N[C@@H](CCS(=O)(=O)O)C(=O)O)C(C)(C)CCC1 [compound II-3, N-(13-cis-Retinoyl)-L-homocysteic acid]
minimal lethal dose [3]: above 100 mg/kg body weight
